Literature values as cited in patent US20070237728A1, “Method and Composition for Dental Bleaching” (HIGH TECH LASER, priority 2000, published 2007).
Like-named read-outs stand apart in the source and are kept apart here.

Test system: teeth

type of teeth discolouration caused (tetracycline staining of teeth)	SMILES	type of teeth discolouration caused (in vivo)
yellow discolouration	CN(C)[C@@H]1C(O)=C(C(N)=O)C(=O)[C@@]2(O)C(O)=C3C(=O)c4c(O)cccc4[C@@](C)(O)[C@H]3C[C@@H]12 [tetracycline]	–
–	CN(C)[C@@H]1C(=O)C(C(N)=O)=C(O)[C@@]2(O)C(=O)C3=C(O)c4c(O)cccc4[C@@](C)(O)[C@H]3[C@H](O)[C@@H]12 [oxytetracyclin]	yellow discolouration
yellow discolouration	CN(C)[C@@H]1C(O)=C(C(N)=O)C(=O)[C@@]2(O)C(O)=C3C(=O)c4c(O)ccc(Cl)c4[C@@H](O)[C@H]3C[C@@H]12 [dimethylchlorotetracyclin]	–
